Measured values from ChEMBL document CHEMBL5291721, “A preclinical secondary pharmacology resource illuminates target-adverse drug reaction associations of marketed drugs” (Nat Commun, 2023).

How the values were obtained:
Adenosine receptor A1 = target: T1, Adenosine receptor A1 (Homo sapiens, UniProt P30542)
T1 sequence (P30542 whole entry): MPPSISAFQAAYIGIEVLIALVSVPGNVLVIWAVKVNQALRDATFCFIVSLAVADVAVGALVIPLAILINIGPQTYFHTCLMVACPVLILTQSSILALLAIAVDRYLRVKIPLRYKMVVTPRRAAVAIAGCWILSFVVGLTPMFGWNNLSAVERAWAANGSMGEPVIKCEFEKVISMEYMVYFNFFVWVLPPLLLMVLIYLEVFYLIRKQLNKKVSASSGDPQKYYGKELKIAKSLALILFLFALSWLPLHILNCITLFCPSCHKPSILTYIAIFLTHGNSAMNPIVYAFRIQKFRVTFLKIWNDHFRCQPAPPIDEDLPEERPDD

Adenosine receptor A3 = target: T2, Adenosine receptor A3 (Homo sapiens, UniProt P0DMS8)
T2 sequence (P0DMS8 whole entry): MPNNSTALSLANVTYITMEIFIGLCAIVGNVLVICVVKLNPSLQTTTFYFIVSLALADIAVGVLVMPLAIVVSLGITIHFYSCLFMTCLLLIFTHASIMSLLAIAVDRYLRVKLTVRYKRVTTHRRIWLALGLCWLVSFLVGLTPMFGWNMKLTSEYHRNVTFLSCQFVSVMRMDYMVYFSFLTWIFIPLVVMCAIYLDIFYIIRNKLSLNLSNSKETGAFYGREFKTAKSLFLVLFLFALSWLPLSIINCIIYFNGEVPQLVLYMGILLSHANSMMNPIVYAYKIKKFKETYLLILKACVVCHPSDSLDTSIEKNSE

[1] = target: T3, Alpha-2C adrenergic receptor (Homo sapiens, UniProt P18825); format: functional
T3 sequence (P18825 whole entry): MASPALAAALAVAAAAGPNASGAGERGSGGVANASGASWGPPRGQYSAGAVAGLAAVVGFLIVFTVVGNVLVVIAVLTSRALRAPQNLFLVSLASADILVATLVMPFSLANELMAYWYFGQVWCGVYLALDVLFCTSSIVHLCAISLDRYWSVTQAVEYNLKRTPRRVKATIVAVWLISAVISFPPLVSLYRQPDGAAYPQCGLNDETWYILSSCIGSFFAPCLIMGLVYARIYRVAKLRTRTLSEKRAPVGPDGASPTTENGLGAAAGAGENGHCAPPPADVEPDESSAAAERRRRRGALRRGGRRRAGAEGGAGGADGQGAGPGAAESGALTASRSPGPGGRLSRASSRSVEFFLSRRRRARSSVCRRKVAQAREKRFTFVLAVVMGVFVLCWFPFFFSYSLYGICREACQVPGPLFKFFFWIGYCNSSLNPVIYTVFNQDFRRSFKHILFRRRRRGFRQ

[2] = target: T4, Type-1 angiotensin II receptor (Homo sapiens, UniProt P30556)
T4 sequence (P30556 whole entry): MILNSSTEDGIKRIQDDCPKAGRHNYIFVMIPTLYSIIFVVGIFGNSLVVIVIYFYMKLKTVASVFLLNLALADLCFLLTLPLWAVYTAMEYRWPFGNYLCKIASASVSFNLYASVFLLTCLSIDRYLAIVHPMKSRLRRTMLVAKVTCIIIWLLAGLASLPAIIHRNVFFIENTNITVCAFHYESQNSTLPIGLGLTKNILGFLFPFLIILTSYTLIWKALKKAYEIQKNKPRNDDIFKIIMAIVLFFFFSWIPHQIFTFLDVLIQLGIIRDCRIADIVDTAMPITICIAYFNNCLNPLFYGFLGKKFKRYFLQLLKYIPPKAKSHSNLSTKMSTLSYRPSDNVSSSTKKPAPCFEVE

[3] = target: T5, 5-hydroxytryptamine receptor 2C (Homo sapiens, UniProt P28335)
T5 sequence (P28335 whole entry): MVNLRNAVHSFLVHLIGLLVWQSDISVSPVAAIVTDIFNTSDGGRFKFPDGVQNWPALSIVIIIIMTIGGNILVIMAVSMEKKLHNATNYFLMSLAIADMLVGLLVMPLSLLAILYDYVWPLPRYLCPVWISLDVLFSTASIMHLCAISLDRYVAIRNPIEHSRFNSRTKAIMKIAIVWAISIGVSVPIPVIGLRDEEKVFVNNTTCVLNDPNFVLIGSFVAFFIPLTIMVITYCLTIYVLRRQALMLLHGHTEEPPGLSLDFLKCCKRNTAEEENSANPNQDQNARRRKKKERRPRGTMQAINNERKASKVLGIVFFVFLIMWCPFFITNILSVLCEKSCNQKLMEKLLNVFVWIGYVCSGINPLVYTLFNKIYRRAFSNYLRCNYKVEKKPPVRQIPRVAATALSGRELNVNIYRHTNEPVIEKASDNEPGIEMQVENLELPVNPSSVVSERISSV

[4] = target: T6, Amine oxidase [flavin-containing] A (Homo sapiens, UniProt P21397); format: functional
T6 sequence (P21397 whole entry): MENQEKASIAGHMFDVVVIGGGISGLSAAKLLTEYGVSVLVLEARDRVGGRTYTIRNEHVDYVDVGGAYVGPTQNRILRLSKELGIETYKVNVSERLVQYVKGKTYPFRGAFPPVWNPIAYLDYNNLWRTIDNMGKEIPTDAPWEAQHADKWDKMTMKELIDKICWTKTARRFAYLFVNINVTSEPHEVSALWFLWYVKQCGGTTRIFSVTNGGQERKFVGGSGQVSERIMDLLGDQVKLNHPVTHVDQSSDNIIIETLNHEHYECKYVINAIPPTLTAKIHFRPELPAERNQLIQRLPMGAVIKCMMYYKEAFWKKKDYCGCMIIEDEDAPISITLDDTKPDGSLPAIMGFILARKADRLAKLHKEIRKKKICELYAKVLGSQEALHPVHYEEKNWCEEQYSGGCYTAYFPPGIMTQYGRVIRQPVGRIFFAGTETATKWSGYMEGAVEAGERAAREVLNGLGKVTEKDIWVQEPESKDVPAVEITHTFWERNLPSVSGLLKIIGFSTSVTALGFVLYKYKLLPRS

[5] = target: cGMP-inhibited 3',5'-cyclic phosphodiesterase 3A (Homo sapiens, UniProt Q14432); format: functional
cGMP-inhibited 3',5'-cyclic phosphodiesterase 3A, sequence (Q14432 whole entry): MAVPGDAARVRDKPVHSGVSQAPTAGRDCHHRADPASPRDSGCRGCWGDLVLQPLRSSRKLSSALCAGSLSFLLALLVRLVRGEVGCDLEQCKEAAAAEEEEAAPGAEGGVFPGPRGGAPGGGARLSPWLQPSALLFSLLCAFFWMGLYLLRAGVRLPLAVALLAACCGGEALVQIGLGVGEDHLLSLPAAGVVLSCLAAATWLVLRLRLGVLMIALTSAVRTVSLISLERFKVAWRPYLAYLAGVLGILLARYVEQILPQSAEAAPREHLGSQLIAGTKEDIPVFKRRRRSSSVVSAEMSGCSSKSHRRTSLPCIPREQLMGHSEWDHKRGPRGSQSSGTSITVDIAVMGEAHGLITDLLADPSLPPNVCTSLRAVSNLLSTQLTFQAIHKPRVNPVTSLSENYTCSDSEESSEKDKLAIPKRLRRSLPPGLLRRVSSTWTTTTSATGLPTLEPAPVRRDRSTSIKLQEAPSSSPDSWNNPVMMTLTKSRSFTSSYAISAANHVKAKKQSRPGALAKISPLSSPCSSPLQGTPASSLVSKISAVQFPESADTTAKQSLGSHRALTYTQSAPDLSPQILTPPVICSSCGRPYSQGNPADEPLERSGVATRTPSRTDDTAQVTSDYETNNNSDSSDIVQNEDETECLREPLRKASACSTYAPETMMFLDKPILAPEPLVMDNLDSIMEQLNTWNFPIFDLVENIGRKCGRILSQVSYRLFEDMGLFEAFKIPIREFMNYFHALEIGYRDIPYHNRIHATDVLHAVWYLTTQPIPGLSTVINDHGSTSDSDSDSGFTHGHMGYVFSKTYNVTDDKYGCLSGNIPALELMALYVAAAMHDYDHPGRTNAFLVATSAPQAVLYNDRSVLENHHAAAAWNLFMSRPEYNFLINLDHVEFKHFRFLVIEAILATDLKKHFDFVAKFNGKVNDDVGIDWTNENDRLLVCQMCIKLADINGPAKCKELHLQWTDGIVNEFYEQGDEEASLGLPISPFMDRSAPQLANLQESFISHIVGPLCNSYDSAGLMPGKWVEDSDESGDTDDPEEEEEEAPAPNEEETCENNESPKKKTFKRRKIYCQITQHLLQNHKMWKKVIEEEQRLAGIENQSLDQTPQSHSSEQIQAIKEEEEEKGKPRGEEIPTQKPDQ

D(3) dopamine receptor = D(3) dopamine receptor (Homo sapiens, UniProt P35462)
D(3) dopamine receptor, sequence (P35462 whole entry): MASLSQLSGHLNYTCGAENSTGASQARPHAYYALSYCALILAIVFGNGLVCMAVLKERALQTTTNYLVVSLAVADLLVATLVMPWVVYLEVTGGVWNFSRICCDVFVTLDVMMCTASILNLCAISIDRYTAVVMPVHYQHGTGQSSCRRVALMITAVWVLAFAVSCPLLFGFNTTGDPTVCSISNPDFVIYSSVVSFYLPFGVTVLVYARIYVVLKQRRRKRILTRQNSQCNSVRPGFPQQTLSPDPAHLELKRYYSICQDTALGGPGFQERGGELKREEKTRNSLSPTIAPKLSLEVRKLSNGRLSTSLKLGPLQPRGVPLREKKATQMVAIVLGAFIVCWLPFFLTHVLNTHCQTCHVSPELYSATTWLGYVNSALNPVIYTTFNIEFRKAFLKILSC
Note: assay procedure not described here.

Structure (SMILES)	AC50 (Adenosine receptor A1)	AC50 (Adenosine receptor A3)	AC50 [1]	AC50 [2]	AC50 [3]	AC50 [4]	AC50 [5]	AC50 (D(3) dopamine receptor)
CCN(CC)CCNC(=O)c1cc(Cl)c(N)cc1OC [METOCLOPRAMIDE]	> 30 µM	> 30 µM	3 µM	> 30 µM	> 10 µM	> 10 µM	> 30 µM	0.076 µM
CC(C)(C(=O)c1cccnc1)c1cccnc1 [METYRAPONE]	> 10 µM	> 10 µM	> 10 µM	> 10 µM	> 30 µM	> 10 µM	> 30 µM	> 30 µM
NC(=O)c1ncn([C@@H]2O[C@H](CO)[C@@H](O)[C@H]2O)c1O [MIZORIBINE]	> 30 µM	> 30 µM	> 30 µM	> 30 µM	> 30 µM	> 30 µM	> 30 µM	> 30 µM
COC(=O)C1=C(C)NC(C)=C(C(=O)OCC(C)C)C1c1ccccc1[N+](=O)[O-] (centres undefined) [NISOLDIPINE]	20.4 µM	0.614 µM	> 10 µM	> 10 µM	> 30 µM	> 10 µM	6.2 µM	10 µM
OCCN1CCN(CCCN2c3ccccc3C=Cc3ccccc32)CC1 [OPIPRAMOL]	> 30 µM	> 30 µM	6.7 µM	> 30 µM	> 30 µM	> 30 µM	> 30 µM	1.32 µM
NC1=NC(=O)C(c2ccccc2)O1 (centres undefined) [PEMOLINE]	> 30 µM	> 30 µM	> 10 µM	> 30 µM	> 30 µM	> 10 µM	> 30 µM	> 30 µM
CCc1ccc(CCOc2ccc(CC3SC(=O)NC3=O)cc2)nc1 (centres undefined) [PIOGLITAZONE]	> 30 µM	> 30 µM	> 10 µM	> 30 µM	> 10 µM	> 10 µM	> 30 µM	> 10 µM
CC(C(=O)O)c1ccc(N2CC=CC2)c(Cl)c1 (centres undefined) [PIRPROFEN]	> 30 µM	> 30 µM	> 10 µM	> 30 µM	> 30 µM	> 10 µM	> 30 µM	> 10 µM
CC[C@H](C)C(=O)O[C@H]1C[C@H](O)C=C2C=C[C@H](C)[C@H](CC[C@@H](O)C[C@@H](O)CC(=O)O)[C@H]21 [PRAVASTATIN]	> 30 µM	> 30 µM	> 30 µM	> 30 µM	> 30 µM	> 30 µM	> 30 µM	> 30 µM
NC(=O)c1cnccn1 [PYRAZINAMIDE]	> 30 µM	3.86 µM	> 30 µM	> 30 µM	> 30 µM	> 30 µM	> 30 µM	> 30 µM
CNC(=O)c1cc(Oc2ccc(NC(=O)Nc3ccc(Cl)c(C(F)(F)F)c3)cc2)ccn1 [SORAFENIB]	> 30 µM	1.88 µM	> 30 µM	11 µM	> 30 µM	8.26 µM	> 30 µM	> 30 µM
CC(C(=O)O)c1ccc(C(=O)c2cccs2)cc1 (centres undefined) [SUPROFEN]	> 10 µM	> 10 µM	> 10 µM	> 10 µM	> 30 µM	> 10 µM	> 30 µM	> 30 µM
CS(=O)(=O)c1ccc([C@@H](O)[C@@H](CO)NC(=O)C(Cl)Cl)cc1 [THIAMPHENICOL]	> 30 µM	> 30 µM	> 30 µM	> 30 µM	> 30 µM	> 30 µM	> 30 µM	> 30 µM
Cc1ccc(C(=O)c2cc(O)c(O)c([N+](=O)[O-])c2)cc1 [TOLCAPONE]	15.6 µM	11.9 µM	> 10 µM	> 10 µM	> 10 µM	> 10 µM	18 µM	> 30 µM
NC[C@H]1CC[C@H](C(=O)O)CC1 [TRANEXAMIC ACID]	> 10 µM	> 10 µM	> 10 µM	> 10 µM	> 30 µM	> 10 µM	> 30 µM	> 30 µM
CCCS(=O)(=O)Nc1ccc(F)c(C(=O)c2c[nH]c3ncc(-c4ccc(Cl)cc4)cc23)c1F [VEMURAFENIB]	> 30 µM	18 µM	> 30 µM	> 30 µM	> 30 µM	> 30 µM	> 30 µM	> 30 µM
OCc1cc([C@@H](O)CNCCCCCCOCCOCc2c(Cl)cccc2Cl)ccc1O [VILANTEROL]	> 30 µM	29 µM	> 30 µM	> 30 µM	> 30 µM	> 30 µM	> 30 µM	> 30 µM
O=C(CCCCCCC(=O)Nc1ccccc1)NO [VORINOSTAT]	> 30 µM	> 30 µM	> 30 µM	> 30 µM	> 30 µM	> 30 µM	> 30 µM	> 30 µM
